In ChEMBL document CHEMBL1949518, “Synthesis and biological evaluation of some new 2-pyrazolines bearing benzene sulfonamide moiety as potential anti-inflammatory and anti-cancer agents” (Eur J Med Chem, 2011):

Tests used:
Type in all cases: functional
Rattus norvegicus = experiment: Antiinflammatory activity in Wistar rat assessed as inhibition of carrageenan-induced paw edema at 20 mg/kg, po administered 30 mins before carrageenan challenge measured after 3 hrs
CCRF-CEM = experiment: Antiproliferative activity against human CCRF-CEM cells assessed as cell growth at 10^-5 M after 48 hrs by SRB assay relative to control; conditions: read-out: Activity
HL-60(TB) = experiment: Antiproliferative activity against human HL-60(TB) cells assessed as cell growth at 10^-5 M after 48 hrs by SRB assay relative to control; conditions: HL-60, 48 h, read-out: Activity
K562 = experiment: Antiproliferative activity against human K562 cells assessed as cell growth at 10^-5 M after 48 hrs by SRB assay relative to control; conditions: K562, 48 h, read-out: Activity
RPMI-8226 = experiment: Antiproliferative activity against human RPMI8226 cells assessed as cell growth at 10^-5 M after 48 hrs by SRB assay relative to control; conditions: RPMI-8226, 48 h, read-out: Activity
HOP-92 = experiment: Antiproliferative activity against human HOP92 cells assessed as cell growth at 10^-5 M after 48 hrs by SRB assay relative to control; conditions: HOP-92, 48 h, read-out: Activity
NCI-H23 = experiment: Antiproliferative activity against human NCI-H23 cells assessed as cell growth at 10^-5 M after 48 hrs by SRB assay relative to control; conditions: NCI-H23, 48 h, read-out: Activity
NCI-H522 = experiment: Antiproliferative activity against human NCI-H522 cells assessed as cell growth at 10^-5 M after 48 hrs by SRB assay relative to control; conditions: NCI-H522, 48 h, read-out: Activity
HCC 2998 = experiment: Antiproliferative activity against human HCC2998 cells assessed as cell growth at 10^-5 M after 48 hrs by SRB assay relative to control; conditions: HCC 2998, 48 h, read-out: Activity
HCT-116 = experiment: Antiproliferative activity against human HCT116 cells assessed as cell growth at 10^-5 M after 48 hrs by SRB assay relative to control; conditions: HCT-116, 48 h, read-out: Activity
HT-29 = experiment: Antiproliferative activity against human HT-29 cells assessed as cell growth at 10^-5 M after 48 hrs by SRB assay relative to control; conditions: HT-29, 48 h, read-out: Activity
SW-620 = experiment: Antiproliferative activity against human SW620 cells assessed as cell growth at 10^-5 M after 48 hrs by SRB assay relative to control; conditions: SW-620, 48 h, read-out: Activity
SNB-75 = experiment: Antiproliferative activity against human SNB75 cells assessed as cell growth at 10^-5 M after 48 hrs by SRB assay relative to control; conditions: SNB-75, 48 h, read-out: Activity
OVCAR-3 = experiment: Antiproliferative activity against human OVCAR3 cells assessed as cell growth at 10^-5 M after 48 hrs by SRB assay relative to control; conditions: OVCAR-3, 48 h, read-out: Activity
SK-OV-3 = experiment: Antiproliferative activity against human SKOV3 cells assessed as cell growth at 10^-5 M after 48 hrs by SRB assay relative to control; conditions: SK-OV-3, 48 h, read-out: Activity
A498 = experiment: Antiproliferative activity against human A498 cells assessed as cell growth at 10^-5 M after 48 hrs by SRB assay relative to control; conditions: A498, 48 h, read-out: Activity
RXF 393 = experiment: Antiproliferative activity against human RXF393 cells assessed as cell growth at 10^-5 M after 48 hrs by SRB assay relative to control; conditions: RXF 393, 48 h, read-out: Activity
SN12C = experiment: Antiproliferative activity against human SN12C cells assessed as cell growth at 10^-5 M after 48 hrs by SRB assay relative to control; conditions: read-out: Activity
PC-3 = experiment: Antiproliferative activity against human PC3 cells assessed as cell growth at 10^-5 M after 48 hrs by SRB assay relative to control; conditions: PC-3, 48 h, read-out: Activity
DU-145 = experiment: Antiproliferative activity against human DU145 cells assessed as cell growth at 10^-5 M after 48 hrs by SRB assay relative to control; conditions: DU-145, 48 h, read-out: Activity
MCF7 [1] = experiment: Antiproliferative activity against human MCF7 cells assessed as cell growth at 10^-5 M after 48 hrs by SRB assay relative to control; conditions: MCF7, 48 h, read-out: Activity
MDA-MB-231 = experiment: Antiproliferative activity against human MDA-MB-231 cells assessed as cell growth at 10^-5 M after 48 hrs by SRB assay relative to control; conditions: MDA-MB-231, 48 h, read-out: Activity
BT-549 = experiment: Antiproliferative activity against human BT549 cells assessed as cell growth at 10^-5 M after 48 hrs by SRB assay relative to control; conditions: BT-549, 48 h, read-out: Activity
MDA-MB-468 = experiment: Antiproliferative activity against human MDA-MB-468 cells assessed as cell growth at 10^-5 M after 48 hrs by SRB assay relative to control; conditions: MDA-MB-468, 48 h, read-out: Activity
UACC-257 = experiment: Antiproliferative activity against human UACC257 cells assessed as cell growth at 10^-5 M after 48 hrs by SRB assay relative to control; conditions: UACC-257, 48 h, read-out: Activity
SK-MEL-5 = experiment: Anticancer activity against human SK-MEL-5 cells after 48 hrs by SRB assay; conditions: SK-MEL-5, 48 h
KM12 = experiment: Anticancer activity against human KM12 cells after 48 hrs by SRB assay; conditions: KM12, 48 h
OVCAR-8 = experiment: Anticancer activity against human OVCAR8 cells after 48 hrs by SRB assay; conditions: OVCAR-8, 48 h; for CC50: read-out: LC50 (the source's name)
NCI/ADR-RES = experiment: Anticancer activity against human NCI/ADR-RES cells after 48 hrs by SRB assay; conditions: for CC50: read-out: LC50 (the source's name)
TK-10 = experiment: Anticancer activity against human TK10 cells after 48 hrs by SRB assay; conditions: TK-10, 48 h; for CC50: read-out: LC50 (the source's name)
MCF7 [2] = experiment: Anticancer activity against human MCF7 cells after 48 hrs by SRB assay; conditions: MCF7, 48 h; for CC50: read-out: LC50 (the source's name)
T47D = experiment: Anticancer activity against human T47D cells after 48 hrs by SRB assay; conditions: for CC50: read-out: LC50 (the source's name)
Malme-3M = experiment: Anticancer activity against human MALME-3M cells after 48 hrs by SRB assay; conditions: for CC50: read-out: LC50 (the source's name)

In the case of `COc1ccc(C2CC(c3c(O)cc(C)c(Cl)c3C)=NN2c2ccc(S(N)(=O)=O)cc2)cc1` (stereo unspecified), the inhibition in vivo at 20 mg/kg (Rattus norvegicus) is reported as 46.7%, the growth at 10 µM (CCRF-CEM) is reported as 38.7% and the growth at 10 µM (HL-60(TB)) is reported as 69.1%. For the same compound, the growth at 10 µM (K562) was 44.1%, the growth at 10 µM (RPMI-8226) was 63.9% and the growth at 10 µM (HOP-92) was 43.3%. It also gave a growth at 10 µM (NCI-H23) of 108%, a growth at 10 µM (NCI-H522) of 71.5% and a growth at 10 µM (HCC 2998) of 97.6%. It also gave a growth at 10 µM (HCT-116) of 75.5%, a growth at 10 µM (HT-29) of 109% and a growth at 10 µM (SW-620) of 94.8%. For the same compound, the growth at 10 µM (SNB-75) was 85.1%, the growth at 10 µM (OVCAR-3) was 102% and the growth at 10 µM (SK-OV-3) was 101%. The growth at 10 µM (A498) was 93.2%, the growth at 10 µM (RXF 393) was 111% and the growth at 10 µM (SN12C) was 99.4%. It also gave a growth at 10 µM (PC-3) of 56.2%, a growth at 10 µM (DU-145) of 92.4% and a growth at 10 µM (MCF7 [1]) of 71.6%. For the same compound, the growth at 10 µM (MDA-MB-231) was 71%, the growth at 10 µM (BT-549) was 119% and the growth at 10 µM (MDA-MB-468) was 91.5%. For the same compound, the growth at 10 µM (UACC-257) was 103%.
For `Cc1cc(O)c(C2=NN(c3ccc(S(N)(=O)=O)cc3)C(c3ccc(Cl)cc3)C2)c(C)c1Cl` (stereo unspecified), the GI50 (SK-MEL-5) was 14.5 µM, the TGI (SK-MEL-5) was 27.8 µM and the inhibition in vivo at 20 mg/kg (Rattus norvegicus) was 80%. It also gave a growth at 10 µM (CCRF-CEM) of 28%, a growth at 10 µM (HL-60(TB)) of 24.1% and a growth at 10 µM (K562) of 25%. It also gave a growth at 10 µM (RPMI-8226) of 25.5%, a growth at 10 µM (HOP-92) of 45.5% and a growth at 10 µM (NCI-H23) of 79.3%. The growth at 10 µM (NCI-H522) was 39.8%, the growth at 10 µM (HCC 2998) was 94.1% and the growth at 10 µM (HCT-116) was 41.1%. It also gave a growth at 10 µM (HT-29) of 52.7%, a growth at 10 µM (SW-620) of 72.2% and a growth at 10 µM (SNB-75) of 78.7%. For the same compound, the growth at 10 µM (OVCAR-3) was 80.3%, the growth at 10 µM (SK-OV-3) was 106% and the growth at 10 µM (A498) was 74.3%. For the same compound, the growth at 10 µM (RXF 393) was 93.4%, the growth at 10 µM (SN12C) was 74.8% and the growth at 10 µM (PC-3) was 13.6%. The growth at 10 µM (DU-145) was 75.2%, the growth at 10 µM (MCF7 [1]) was 37.2% and the growth at 10 µM (MDA-MB-231) was 103%. For the same compound, the growth at 10 µM (BT-549) was 95.7%, the growth at 10 µM (MDA-MB-468) was 91.1% and the growth at 10 µM (UACC-257) was 97.6%. For the same compound, the GI50 (KM12) was 13.3 µM, the TGI (KM12) was 28.3 µM and the GI50 (OVCAR-8) was 27.3 µM. It also gave a TGI (OVCAR-8) of 100 µM, a CC50 (OVCAR-8) of 100 µM and a GI50 (NCI/ADR-RES) of 19.3 µM. For the same compound, the TGI (NCI/ADR-RES) was 76.4 µM, the CC50 (NCI/ADR-RES) was 100 µM and the GI50 (TK-10) was 22.1 µM. For the same compound, the TGI (TK-10) was 42.4 µM, the CC50 (TK-10) was 81.4 µM and the GI50 (MCF7 [2]) was 6.55 µM. For the same compound, the TGI (MCF7 [2]) was 24.2 µM, the CC50 (MCF7 [2]) was 71.1 µM and the GI50 (T47D) was 5.72 µM. For the same compound, the TGI (T47D) was 19.7 µM, the CC50 (T47D) was 51.4 µM and the GI50 (Malme-3M) was 14.8 µM. For the same compound, the TGI (Malme-3M) was 32.7 µM and the CC50 (Malme-3M) was 72.1 µM.
With `Cc1cc(O)c(C2=NN(c3ccc(S(N)(=O)=O)cc3)C(c3ccc(N(C)C)cc3)C2)c(C)c1Cl` (stereo unspecified) the GI50 (SK-MEL-5) was 9.59 µM, the LC50 (concentration killing 50% of cells) (SK-MEL-5) was 46.2 µM and the TGI (SK-MEL-5) was 21.4 µM. It also gave an inhibition in vivo at 20 mg/kg (Rattus norvegicus) of 33%, a growth at 10 µM (CCRF-CEM) of 11.6% and a growth at 10 µM (HL-60(TB)) of 18.4%. The growth at 10 µM (K562) was 21%, the growth at 10 µM (RPMI-8226) was -37.6% and the growth at 10 µM (HOP-92) was 21.3%. The growth at 10 µM (NCI-H23) was 78.8%, the growth at 10 µM (NCI-H522) was 57.7% and the growth at 10 µM (HCC 2998) was 66.5%. The growth at 10 µM (HCT-116) was 55.1%, the growth at 10 µM (HT-29) was 55.1% and the growth at 10 µM (SW-620) was 48.5%. The growth at 10 µM (SNB-75) was 67.4%, the growth at 10 µM (OVCAR-3) was 68% and the growth at 10 µM (SK-OV-3) was 81.6%. It also gave a growth at 10 µM (A498) of 87.2%, a growth at 10 µM (RXF 393) of 48.1% and a growth at 10 µM (SN12C) of 36.1%. It also gave a growth at 10 µM (PC-3) of 12.1%, a growth at 10 µM (DU-145) of 49.3% and a growth at 10 µM (MCF7 [1]) of 13%. For the same compound, the growth at 10 µM (MDA-MB-231) was 59%, the growth at 10 µM (BT-549) was 112% and the growth at 10 µM (MDA-MB-468) was 43.7%. For the same compound, the growth at 10 µM (UACC-257) was 74.1%, the GI50 (KM12) was 2.8 µM and the LC50 (KM12) was 38.2 µM. For the same compound, the TGI (KM12) was 10.6 µM, the GI50 (OVCAR-8) was 5.75 µM and the TGI (OVCAR-8) was 21.6 µM. For the same compound, the CC50 (OVCAR-8) was 66.4 µM, the GI50 (NCI/ADR-RES) was 4.63 µM and the TGI (NCI/ADR-RES) was 17 µM. The CC50 (NCI/ADR-RES) was 4.35 µM, the GI50 (TK-10) was 4.48 µM and the TGI (TK-10) was 18.8 µM. For the same compound, the CC50 (TK-10) was 69.5 µM, the GI50 (MCF7 [2]) was 2.01 µM and the TGI (MCF7 [2]) was 10.5 µM. The CC50 (MCF7 [2]) was 37.1 µM, the GI50 (T47D) was 2.93 µM and the TGI (T47D) was 14.9 µM. The CC50 (T47D) was 49.8 µM, the GI50 (Malme-3M) was 14.8 µM and the TGI (Malme-3M) was 35.2 µM. It also gave a CC50 (Malme-3M) of 83.4 µM.
